Among the data in patent publication US20150140015A1, “METHODS AND PHARMACEUTICAL COMPOSITIONS FOR THE TREATMENT OF PANCREATIC CANCER” (INSERM (Institut National de la Sante et de la Recherche …, priority 2013, published 2015) are caspase-3 activation values, retold here.

In this assay the test system is recombinant OX1R/HPAF-II cells. Briefly: Activated caspase-3 immunostaining in recombinant OX1R/HPAF-II cells. Format: cell-based, human. The conditions noted are these: 1 μM orexin-A, 48 hr. The protocol:
FIGS. 5A and B. Effect of orexin-A on apoptosis in OX1R expressing recombinant OX1R/HPAF-II cells. A, Parental HPAF-II and recombinant OX1R/HPAF-II cells were challenged with (black bars) or without (white bars) 1 μM orexin-A for 48 hr in the absence or presence of the SHP-2 protein tyrosine phosphatase inhibitor, NSC-87877 (50 μM). Apoptosis was measured by determination of annexin V-PE binding. Results are expressed as the percentage of apoptotic cells, and are the means±SE of three separate experiments. ***p<0.001; ns, non-significant; B, paraformaldehyde-fixed HPAF-II cells and recombinant OX1R/HPAF-II cells were challenged with or without (Basal) 1 μM orexin-A for 48 hr. […]
After dewaxing, rehydrating tumor paraffin sections, and antigen retrieval by pretreatment with high temperature at pH 9, immunohistochemical procedures were carried out using an automated immunohistochemical stainer according to the manufacturer's guidelines (Bond-Max slide stainer, Menarini, Leica Microsystems). […] OX1R immunostaining was evaluated by two investigators (TV and AC) by calculating a score (0-300) obtained by multiplying the intensity (negative, 0; weak, 1; moderate, 2; and strong, 3) by the percentage of stained cells. The pattern of expression (cytoplasmic, membranous, and nuclear) was also recorded, and a mean score was calculated for each tumor. […]

For “orexin-A: 33 amino acid hypothalamic neuropeptide, OX1R agonist, SEQ ID NO:2; peptide from GL Biochemicals”, the caspase-3 activation result is “strong caspase-3 activation”.
